Measurements published in patent publication US20210382058A1, “PATIENT SELECTION FOR TREATMENT OF MYC POSITIVE CANCERS WITH INDENOISOQUINOLINES” (Purdue Research Foundation, priority 2020, published 2021).
Where two headings read alike, the source gives them in different places.

Tests used:
[1] = tested on: MYC protein expression in MCF-7 breast cancer cells; assay: Western blotting of MYC protein level in MCF-7 cells; format: cell-based, human; settings: MCF-7, 0.5, 1, 2, and 4 μM, 24 h
Protocol: MCF-7 cells were incubated with each compound at four concentrations (0.5, 1, 2, and 4 μM) for 24 hours, and the MYC protein levels were measured (FIG. 3A and FIGS. 12 A to 12 F).
Cells were incubated at 37° C. with 5% CO2.
The gels were cut into strips that contained the proteins of interest and transferred to nitrocellulose membrane (I323002, Invitrogen) using an iBlot 2 Dry Transfer Device (Invitrogen). Immunoblotting was carried out according to standard procedures using the ECL detection method. The membrane was hybridized with the following antibodies: monoclonal anti-MYC (1:1000 dilution; rabbit, Cell Signaling Technology), monoclonal anti-GAPDH (1:2000 dilution; rabbit, Cell Signaling Technology).

NCI-60 cancer cell lines = assay: NCI-60 cancer cell line drug screen (GI50, MGM); format: cell-based, human; settings: for GI50: read-out: Antiproliferative Activities [GI50 (μM)]
Protocol: Cancer cells were incubated with the test compounds at five concentrations ranging from 100 μM to 10 nM for 48 h. […] The approximate average of GI50 values across the entire panel of NCI-60 cancer cell lines for each compound was recorded as the MGM value.

Compound: COc1cnc2c(c1)C(=O)c1c-2n(CCCNC2=NCCS2)c(=O)c2cc([N+](=O)[O-])ccc12 [Compound 12]
- MYC-inhibitory effect (MYC protein, western blot) [1]: clear MYC-inhibitory effect
- GI50 (NCI-60 cancer cell lines; Homo sapiens, 786-0, Renal Cancer, 786-0): 0.02 µM
- GI50 (NCI-60 cancer cell lines; Homo sapiens, A549, Non-Small Cell Lung Cancer, A549/ATCC): 0.04 µM
- GI50 (NCI-60 cancer cell lines; Homo sapiens, ACHN, Renal Cancer, ACHN): < 0.01 µM
- GI50 (NCI-60 cancer cell lines; Homo sapiens, BT-549, Breast Cancer, BT-549): 0.05 µM
- GI50 (NCI-60 cancer cell lines; Homo sapiens, CAKI-1, Renal Cancer, CAKI-1): < 0.01 µM
- GI50 (NCI-60 cancer cell lines; Homo sapiens, CCRF-CEM, Leukemia, CCRF-CEM): < 0.01 µM
- GI50 (NCI-60 cancer cell lines; Homo sapiens, COLO 205, Colon Cancer, COLO 205): 0.24 µM
- GI50 (NCI-60 cancer cell lines; Homo sapiens, DU-145, Prostate Cancer, DU-145): < 0.01 µM
- GI50 (NCI-60 cancer cell lines; Homo sapiens, EKVX, Non-Small Cell Lung Cancer, EKVX): 1.01 µM
- GI50 (NCI-60 cancer cell lines; Homo sapiens, HCC 2998, Colon Cancer, HCC-2998): 1.03 µM
- GI50 (NCI-60 cancer cell lines; Homo sapiens, HCT-15, Colon Cancer, HCT-15): 1.17 µM
- GI50 (NCI-60 cancer cell lines; Homo sapiens, HL-60, Leukemia, HL-60(TB)): < 0.01 µM
- GI50 (NCI-60 cancer cell lines; Homo sapiens, HOP-62, Non-Small Cell Lung Cancer, HOP-62): 0.01 µM
- GI50 (NCI-60 cancer cell lines; Homo sapiens, HOP-92, Non-Small Cell Lung Cancer, HOP-92): 1.38 µM
- GI50 (NCI-60 cancer cell lines; Homo sapiens, HT-29, Colon Cancer, HT29): 0.03 µM
- GI50 (NCI-60 cancer cell lines; Homo sapiens, Hs-578T, Breast Cancer, HS 578T): 1.82 µM
- GI50 (NCI-60 cancer cell lines; Homo sapiens, IGROV-1, Ovarian Cancer, IGROV1): 0.08 µM
- GI50 (NCI-60 cancer cell lines; Homo sapiens, K562, Leukemia, K-562): 0.11 µM
- GI50 (NCI-60 cancer cell lines; Homo sapiens, KM12, Colon Cancer, KM12): 1.11 µM
- GI50 (NCI-60 cancer cell lines; Homo sapiens, LOX IMVI, Melanoma, LOX IMVI): < 0.01 µM
- GI50 (NCI-60 cancer cell lines; Homo sapiens, Leukemia, SR): < 0.01 µM
- GI50 (NCI-60 cancer cell lines; Homo sapiens, MCF7, Breast Cancer, MCF7): < 0.01 µM
- GI50 (NCI-60 cancer cell lines; Homo sapiens, MDA-MB-231, Breast Cancer, MDA-MB-231/ATCC): 1.61 µM
- GI50 (NCI-60 cancer cell lines; Homo sapiens, MDA-MB-435, Melanoma, MDA-MB-435): 0.48 µM
- GI50 (NCI-60 cancer cell lines; Homo sapiens, MDA-MB-468, Breast Cancer, MDA-MB-468): 0.03 µM
- GI50 (NCI-60 cancer cell lines; Homo sapiens, MOLT-4, Leukemia, MOLT-4): < 0.01 µM
- GI50 (NCI-60 cancer cell lines; Homo sapiens, Malme-3M, Melanoma, MALME-3M): 0.62 µM
- GI50 (NCI-60 cancer cell lines; Homo sapiens, Melanoma, M14): < 0.01 µM
- GI50 (NCI-60 cancer cell lines; Homo sapiens, NCI-H23, Non-Small Cell Lung Cancer, NCI-H23): 0.02 µM
- GI50 (NCI-60 cancer cell lines; Homo sapiens, NCI-H226, Non-Small Cell Lung Cancer, NCI-H226): 0.04 µM
- GI50 (NCI-60 cancer cell lines; Homo sapiens, NCI-H322M, Non-Small Cell Lung Cancer, NCI-H322M): 0.04 µM
- GI50 (NCI-60 cancer cell lines; Homo sapiens, NCI-H460, Non-Small Cell Lung Cancer, NCI-H460): < 0.01 µM
- GI50 (NCI-60 cancer cell lines; Homo sapiens, NCI-H522, Non-Small Cell Lung Cancer, NCI-H522): < 0.01 µM
- GI50 (NCI-60 cancer cell lines; Homo sapiens, OVCAR-3, Ovarian Cancer, OVCAR-3): 0.14 µM
- GI50 (NCI-60 cancer cell lines; Homo sapiens, OVCAR-4, Ovarian Cancer, OVCAR-4): 0.48 µM
- GI50 (NCI-60 cancer cell lines; Homo sapiens, OVCAR-5, Ovarian Cancer, OVCAR-5): 1.04 µM
- GI50 (NCI-60 cancer cell lines; Homo sapiens, OVCAR-8, Ovarian Cancer, OVCAR-8): 0.02 µM
- GI50 (NCI-60 cancer cell lines; Homo sapiens, Ovarian Cancer, NCl/ADR-RES): 0.02 µM
- GI50 (NCI-60 cancer cell lines; Homo sapiens, Prostate Cancer, PC-3): 1.28 µM
- GI50 (NCI-60 cancer cell lines; Homo sapiens, RPMI-8226, Leukemia, RPMI-8226): 0.03 µM
- GI50 (NCI-60 cancer cell lines; Homo sapiens, RXF 393, Renal Cancer, RXF 393): 0.03 µM
- GI50 (NCI-60 cancer cell lines; Homo sapiens, Renal Cancer, U0-31): < 0.01 µM
- GI50 (NCI-60 cancer cell lines; Homo sapiens, SF-268, CNS Cancer, SF-268): < 0.01 µM
- GI50 (NCI-60 cancer cell lines; Homo sapiens, SF-295, CNS Cancer, SF-295): 0.01 µM
- GI50 (NCI-60 cancer cell lines; Homo sapiens, SF-539, CNS Cancer, SF-539): 0.04 µM
- GI50 (NCI-60 cancer cell lines; Homo sapiens, SK-MEL-2, Melanoma, SK-MEL-2): 1.56 µM
- GI50 (NCI-60 cancer cell lines; Homo sapiens, SK-MEL-5, Melanoma, SK-MEL-5): 0.03 µM
- GI50 (NCI-60 cancer cell lines; Homo sapiens, SK-MEL-28, Melanoma, SK-MEL-28): 1.18 µM
- GI50 (NCI-60 cancer cell lines; Homo sapiens, SK-OV-3, Ovarian Cancer, SK-OV-3): 0.01 µM
- GI50 (NCI-60 cancer cell lines; Homo sapiens, SN12C, Renal Cancer, SN12C): < 0.01 µM
- GI50 (NCI-60 cancer cell lines; Homo sapiens, SNB-19, CNS Cancer, SNB-19): 0.01 µM
- GI50 (NCI-60 cancer cell lines; Homo sapiens, SNB-75, CNS Cancer, SNB-75): 0.03 µM
- GI50 (NCI-60 cancer cell lines; Homo sapiens, SW-620, Colon Cancer, SW-620): 0.01 µM
- GI50 (NCI-60 cancer cell lines; Homo sapiens, T47D, Breast Cancer, T-47D): < 0.01 µM
- GI50 (NCI-60 cancer cell lines; Homo sapiens, TK-10, Renal Cancer, TK-10): 1.34 µM
- GI50 (NCI-60 cancer cell lines; Homo sapiens, U-251, CNS Cancer, U251): < 0.01 µM
- GI50 (NCI-60 cancer cell lines; Homo sapiens, UACC-62, Melanoma, UACC-62): < 0.01 µM
- GI50 (NCI-60 cancer cell lines; Homo sapiens, UACC-257, Melanoma, UACC-257): 0.58 µM
- mean GI50 across NCI-60 panel (MGM) (NCI-60 cancer cell lines; Homo sapiens, average of GI50 values across the entire panel of NCI-60 cancer cell lines): 55 nM
- anticancer activity (GI50 profile) in words (NCI-60 cancer cell lines; NCI-60 panel): more potent anticancer activities compared to compounds 4 and 20
